In article PMC5218480 (PLoS ONE, 2017):

System: MV-4-11 cells
Experiment: Gene expression microarray analysis (Affymetrix PrimeView) and GSEA
Format: cell-based, human
Set-up: RFU PODN (11730768_x_at) / Fold change /veh PODN (11730768_x_at) / RFU LINC00158 (11744669_a_at) / Fold change /veh LINC00158 (11744669_a_at) / RFU DUSP10 (11751237_a_at) / Fold change /veh DUSP10 (11751237_a_at) / RFU ID3 (11757404_x_at) / Fold change /veh ID3 (11757404_x_at) / RFU PLEKHG5 (11737974_s_at) / Fold change /veh PLEKHG5 (11737974_s_at) / RFU LRRC4B (11730491_at) / Fold change /veh LRRC4B (11730491_at) / RFU GIMAP4 (11747438_a_at) / Fold change /veh GIMAP4 (11747438_a_at) / RFU KRT8 (11758183_x_at) / Fold change /veh KRT8 (11758183_x_at) / RFU CNN1 (11734310_a_at) / Fold change /veh CNN1 (11734310_a_at) / RFU VPS37D (11726825_at) / Fold change /veh VPS37D (11726825_at) / RFU C10orf10 (11716522_x_at) / Fold change /veh C10orf10 (11716522_x_at) / RFU KIR2DL2 /// KIR2DL4 /// KIR2DL5A /// KIR2DL5B /// KIR2DS1 /// KIR2DS2 /// KIR2DS3 /// KIR2DS4 /// KIR3DL3 /// KIR3DL3 /// KIR3DS1 (11738374_at) / Fold change /veh KIR2DL2 /// KIR2DL4 /// KIR2DL5A /// KIR2DL5B /// KIR2DS1 /// KIR2DS2 /// KIR2DS3 /// KIR2DS4 /// KIR3DL3 /// KIR3DL3 /// KIR3DS1 (11738374_at) / RFU C1QL1 (11718748_at) / Fold change /veh C1QL1 (11718748_at) / RFU TMPRSS4 (11747572_a_at) / Fold change /veh TMPRSS4 (11747572_a_at) / RFU HAMP (11756126_x_at) / Fold change /veh HAMP (11756126_x_at) / RFU RNFT2 (11725882_a_at) / Fold change /veh RNFT2 (11725882_a_at) / RFU NR4A2 (11747474_a_at) / Fold change /veh NR4A2 (11747474_a_at) / RFU ABCC12 (11746883_a_at) / Fold change /veh ABCC12 (11746883_a_at) / RFU TMEM136 (11760407_x_at) / Fold change /veh TMEM136 (11760407_x_at) / RFU CLDN22 /// WWC2 (11732394_at) / Fold change /veh CLDN22 /// WWC2 (11732394_at) / RFU HLA-DPB1 (11760878_x_at) / Fold change /veh HLA-DPB1 (11760878_x_at) / RFU SPINT1 (11716480_a_at) / Fold change /veh SPINT1 (11716480_a_at) / RFU GAP43 (11754022_s_at) / Fold change /veh GAP43 (11754022_s_at) / RFU A4GNT (11735810_at) / Fold change /veh A4GNT (11735810_at) / RFU PRB3 (11715151_x_at) / Fold change /veh PRB3 (11715151_x_at) / RFU TUBB4B (11761932_at) / Fold change /veh TUBB4B (11761932_at) / RFU CAPN14 (11732068_a_at) / Fold change /veh CAPN14 (11732068_a_at) / RFU TMCC2 (11721928_a_at) / Fold change /veh TMCC2 (11721928_a_at) / RFU IRGQ (11745062_a_at) / Fold change /veh IRGQ (11745062_a_at) / RFU FAM174B (11720279_a_at) / Fold change /veh FAM174B (11720279_a_at) / RFU TMPRSS4 (11748680_a_at) / Fold change /veh TMPRSS4 (11748680_a_at) / RFU FAM212B (11763350_a_at) / Fold change /veh FAM212B (11763350_a_at) / RFU PLEKHG5 (11743358_a_at) / Fold change /veh PLEKHG5 (11743358_a_at) / RFU ZSCAN30 (11745921_a_at) / Fold change /veh ZSCAN30 (11745921_a_at) / RFU CMKLR1 (11741424_a_at) / Fold change /veh CMKLR1 (11741424_a_at) / RFU LOC101060620 /// MAPK8IP1 (11723275_at) / Fold change /veh LOC101060620 /// MAPK8IP1 (11723275_at) / RFU SPTSSB (11747773_x_at) / Fold change /veh SPTSSB (11747773_x_at) / RFU PRSS12 (11739890_at) / Fold change /veh PRSS12 (11739890_at) / RFU BIN1 (11741810_x_at) / Fold change /veh BIN1 (11741810_x_at) / RFU WNT11 (11732464_a_at) / Fold change /veh WNT11 (11732464_a_at) / RFU C10orf10 (11716521_a_at) / Fold change /veh C10orf10 (11716521_a_at) / RFU C5orf56 (11738089_at) / Fold change /veh C5orf56 (11738089_at) / RFU CYB561 (11721691_x_at) / Fold change /veh CYB561 (11721691_x_at) / RFU ANKRD19P (11752326_a_at) / Fold change /veh ANKRD19P (11752326_a_at) / RFU OR2T12 /// OR2T33 /// OR2T8 (11738714_s_at) / Fold change /veh OR2T12 /// OR2T33 /// OR2T8 (11738714_s_at) / RFU VCAN (11748164_a_at) / Fold change /veh VCAN (11748164_a_at) / RFU JSRP1 (11732532_at) / Fold change /veh JSRP1 (11732532_at) / RFU KRTAP10-11 (11738290_x_at) / Fold change /veh KRTAP10-11 (11738290_x_at) / RFU MYO3A (11730013_a_at) / Fold change /veh MYO3A (11730013_a_at) / RFU EBF3 (11725865_a_at) / Fold change /veh EBF3 (11725865_a_at) / RFU CAMK2N1 (11719241_x_at) / Fold change /veh CAMK2N1 (11719241_x_at) / RFU C5orf56 (11738088_a_at) / Fold change /veh C5orf56 (11738088_a_at) / RFU OLFML3 (11715873_a_at) / Fold change /veh OLFML3 (11715873_a_at) / RFU LOC100653217 /// NTM (11731650_a_at) / Fold change /veh LOC100653217 /// NTM (11731650_a_at) / RFU MAPK11 (11762145_a_at) / Fold change /veh MAPK11 (11762145_a_at) / RFU FIZ1 (11724087_x_at) / Fold change /veh FIZ1 (11724087_x_at) / RFU OASL (11726364_x_at) / Fold change /veh OASL (11726364_x_at) / RFU SOX15 (11748057_x_at) / Fold change /veh SOX15 (11748057_x_at) / RFU CD79A (11719716_a_at) / Fold change /veh CD79A (11719716_a_at) / RFU HIST1H1D (11736915_at) / Fold change /veh HIST1H1D (11736915_at) / RFU CASKIN2 (11723855_a_at) / Fold change /veh CASKIN2 (11723855_a_at) / RFU LOC730098 (11760151_x_at) / Fold change /veh LOC730098 (11760151_x_at) / RFU OR4N2 (11742367_at) / Fold change /veh OR4N2 (11742367_at) / RFU PRRT2 (11749266_a_at) / Fold change /veh PRRT2 (11749266_a_at) / RFU SNX32 (11753110_a_at) / Fold change /veh SNX32 (11753110_a_at) / RFU CDHR5 (11726645_a_at) / Fold change /veh CDHR5 (11726645_a_at) / RFU RCAN1 (11760418_a_at) / Fold change /veh RCAN1 (11760418_a_at) / RFU FAM167A (11723789_a_at) / Fold change /veh FAM167A (11723789_a_at) / RFU FAM26E (11764081_at) / Fold change /veh FAM26E (11764081_at) / RFU ISYNA1 (11749810_s_at) / Fold change /veh ISYNA1 (11749810_s_at) / RFU ACY1 (11761880_at) / Fold change /veh ACY1 (11761880_at) / RFU 11764098_at / Fold change /veh 11764098_at / RFU SAMD14 (11745864_x_at) / Fold change /veh SAMD14 (11745864_x_at) / RFU NPB (11741838_a_at) / Fold change /veh NPB (11741838_a_at) / RFU TMPRSS6 (11731388_a_at) / Fold change /veh TMPRSS6 (11731388_a_at) / RFU KRTAP10-2 (11738614_at) / Fold change /veh KRTAP10-2 (11738614_at) / RFU ARHGAP8 /// PRR5-ARHGAP8 (11727945_x_at) / Fold change /veh ARHGAP8 /// PRR5-ARHGAP8 (11727945_x_at) / RFU KRTAP5-7 /// NADSYN1 (11734609_at) / Fold change /veh KRTAP5-7 /// NADSYN1 (11734609_at) / RFU RASL12 (11751679_a_at) / Fold change /veh RASL12 (11751679_a_at) / RFU CDKN2B (11736163_a_at) / Fold change /veh CDKN2B (11736163_a_at) / RFU PRF1 (11729649_at) / Fold change /veh PRF1 (11729649_at) / RFU, ZNF638 /// ZNF638-IT1 / Fold change vs veh, ZNF638 /// ZNF638-IT1 / RFU, PANK3 / Fold change vs veh, PANK3 / RFU, SH3YL1 / Fold change vs veh, SH3YL1 / RFU, ZEB2 / Fold change vs veh, ZEB2 / RFU, NRIP1 / Fold change vs veh, NRIP1 / RFU, PTTG1IP / Fold change vs veh, PTTG1IP / RFU, CAPN2 / Fold change vs veh, CAPN2 / RFU, MED14 / Fold change vs veh, MED14 / RFU, SNORA58 / Fold change vs veh, SNORA58 / RFU, C1orf63 / Fold change vs veh, C1orf63 / RFU, LRRFIP1 / Fold change vs veh, LRRFIP1 / RFU, NDUFAF7 / Fold change vs veh, NDUFAF7 / RFU, SLC12A2 / Fold change vs veh, SLC12A2 / RFU, IBTK / Fold change vs veh, IBTK / RFU, ESF1 / Fold change vs veh, ESF1 / Fold change vs veh, TMEM50B / RFU, TAOK1 / Fold change vs veh, TAOK1 / RFU, ACBD3 / Fold change vs veh, ACBD3 / RFU, TMA16 / Fold change vs veh, TMA16 / RFU, RWDD3 / Fold change vs veh, RWDD3 / RFU, BCAT1 / Fold change vs veh, BCAT1 / RFU, EDEM3 / Fold change vs veh, EDEM3 / RFU, TMEM33 / Fold change vs veh, TMEM33 / RFU, WDR75 / Fold change vs veh, WDR75 / RFU, AHCTF1 / Fold change vs veh, AHCTF1 / RFU, TFRC / Fold change vs veh, TFRC / RFU, ZDHHC17 / Fold change vs veh, ZDHHC17 / RFU, NOM1 / Fold change vs veh, NOM1 / RFU, ARL8B / Fold change vs veh, ARL8B / RFU, ZBTB11 / Fold change vs veh, ZBTB11 / RFU, TAMM41 / Fold change vs veh, TAMM41 / RFU, KIAA1704 /// LOC100996395 / Fold change vs veh, KIAA1704 /// LOC100996395 / RFU, ING1 / Fold change vs veh, ING1 / RFU, TRMT61B / Fold change vs veh, TRMT61B / RFU, FUBP3 / Fold change vs veh, FUBP3 / RFU, TP53 / Fold change vs veh, TP53 / RFU, TNKS2 / Fold change vs veh, TNKS2 / RFU, ZFP14 / Fold change vs veh, ZFP14 / RFU, ACTR2 / Fold change vs veh, ACTR2 / RFU, PPP3R1 / Fold change vs veh, PPP3R1 / RFU, PIK3R1 / Fold change vs veh, PIK3R1 / RFU, HNRNPA1 / Fold change vs veh, HNRNPA1 / RFU, RNF170 / Fold change vs veh, RNF170 / RFU, ZNF28 / Fold change vs veh, ZNF28 / RFU, RNGTT / Fold change vs veh, RNGTT / RFU, OGT / Fold change vs veh, OGT / RFU, BRD1 / Fold change vs veh, BRD1 / RFU, MARS / Fold change vs veh, MARS / RFU, ZNF655 / Fold change vs veh, ZNF655 / RFU, FAHD1 / Fold change vs veh, FAHD1 / RFU, BDP1 / Fold change vs veh, BDP1 / RFU, LRRCC1 / Fold change vs veh, LRRCC1 / RFU, ARID1A / Fold change vs veh, ARID1A / RFU, ZNF146 / Fold change vs veh, ZNF146 / RFU, ZNF330 / Fold change vs veh, ZNF330 / RFU, GPN3 / Fold change vs veh, GPN3 / RFU, C9orf123 / Fold change vs veh, C9orf123 / RFU, N4BP2L2 / Fold change vs veh, N4BP2L2 / RFU, ARFIP1 / Fold change vs veh, ARFIP1 / RFU, FAM179B / Fold change vs veh, FAM179B / RFU, BCL10 / Fold change vs veh, BCL10 / RFU, UHRF1BP1L / Fold change vs veh, UHRF1BP1L / RFU, BET1 / Fold change vs veh, BET1 / RFU, CNOT2 / Fold change vs veh, CNOT2 / RFU, ZNF268 / Fold change vs veh, ZNF268 / Fold change vs veh, ZNF507 / RFU, DGCR2 / Fold change vs veh, DGCR2 / RFU, WDSUB1 / Fold change vs veh, WDSUB1 / Fold change vs veh, HSP90B1 /// MIR3652 / RFU, ADSS / Fold change vs veh, ADSS / RFU, GK / Fold change vs veh, GK / RFU, ZNF148 / Fold change vs veh, ZNF148 / RFU, TAF9 / Fold change vs veh, TAF9 / RFU, SLC1A5 / Fold change vs veh, SLC1A5 / RFU, SLMO2 / Fold change vs veh, SLMO2 / RFU, ABCC4 / Fold change vs veh, ABCC4 / RFU, LOC101060439 /// RAP1B / Fold change vs veh, LOC101060439 /// RAP1B / RFU, RFX7 / Fold change vs veh, RFX7 / RFU, GTPBP10 / Fold change vs veh, GTPBP10 / RFU, CNEP1R1 / Fold change vs veh, CNEP1R1 / RFU, BIVM-ERCC5 /// ERCC5 / Fold change vs veh, BIVM-ERCC5 /// ERCC5 / RFU, ILF3 / Fold change vs veh, ILF3 / RFU 11762660_at / Fold change /veh 11762660_at / RFU VCAN (11757783_s_at) / Fold change /veh VCAN (11757783_s_at) / RFU DDX43 (11728927_at) / Fold change /veh DDX43 (11728927_at) / RFU KRT8 (11758188_x_at) / Fold change /veh KRT8 (11758188_x_at) / RFU NKD1 (11759106_at) / Fold change /veh NKD1 (11759106_at) / RFU SRD5A1 (11742802_a_at) / Fold change /veh SRD5A1 (11742802_a_at) / RFU TPSAB1 /// TPSB2 (11721975_s_at) / Fold change /veh TPSAB1 /// TPSB2 (11721975_s_at) / RFU GSTM3 (11746129_a_at) / Fold change /veh GSTM3 (11746129_a_at) / RFU IL23R (11737362_x_at) / Fold change /veh IL23R (11737362_x_at) / RFU TMEM51 (11727254_a_at) / Fold change /veh TMEM51 (11727254_a_at) / RFU PIWIL2 (11732686_x_at) / Fold change /veh PIWIL2 (11732686_x_at) / RFU ORM1 (11744905_x_at) / Fold change /veh ORM1 (11744905_x_at) / RFU CCDC152 (11743942_at) / Fold change /veh CCDC152 (11743942_at) / RFU ECM1 (11717891_a_at) / Fold change /veh ECM1 (11717891_a_at) / RFU IL23R (11748794_a_at) / Fold change /veh IL23R (11748794_a_at) / RFU TNFAIP8L3 (11732012_x_at) / Fold change /veh TNFAIP8L3 (11732012_x_at) / RFU MBOAT4 (11741988_at) / Fold change /veh MBOAT4 (11741988_at) / RFU 11764193_at / Fold change /veh 11764193_at / RFU TMEM53 (11763286_at) / Fold change /veh TMEM53 (11763286_at) / RFU MAGEB2 (11727129_at) / Fold change /veh MAGEB2 (11727129_at) / RFU TMEM200A (11744735_a_at) / Fold change /veh TMEM200A (11744735_a_at) / RFU CCDC152 (11751479_a_at) / Fold change /veh CCDC152 (11751479_a_at) / RFU FAM211A (11726209_a_at) / Fold change /veh FAM211A (11726209_a_at) / RFU RGS16 (11746705_a_at) / Fold change /veh RGS16 (11746705_a_at) / RFU VCAN (11755009_s_at) / Fold change /veh VCAN (11755009_s_at) / RFU RHOB (11743442_s_at) / Fold change /veh RHOB (11743442_s_at) / RFU RGS16 (11720943_a_at) / Fold change /veh RGS16 (11720943_a_at) / RFU RGS16 (11720944_at) / Fold change /veh RGS16 (11720944_at) / RFU, VPS4B / Fold change vs veh, VPS4B / RFU, CREB1 / Fold change vs veh, CREB1 / RFU, DNAJC13 / Fold change vs veh, DNAJC13 / RFU, GNAQ / Fold change vs veh, GNAQ / RFU, CDK5R1 / Fold change vs veh, CDK5R1 / RFU, ZRANB3 / Fold change vs veh, ZRANB3 / RFU, CUL4A / Fold change vs veh, CUL4A / RFU, CCNY / Fold change vs veh, CCNY / RFU, UFL1 / Fold change vs veh, UFL1 / RFU, COG3 / Fold change vs veh, COG3 / RFU, DIAPH2 / Fold change vs veh, DIAPH2 / RFU, SKA2 / Fold change vs veh, SKA2 / RFU, AFF3 / Fold change vs veh, AFF3 / RFU, LMF1 / Fold change vs veh, LMF1 / RFU, IPO11 / Fold change vs veh, IPO11 / RFU, DFFB / Fold change vs veh, DFFB / RFU, FOXP1 / Fold change vs veh, FOXP1 / RFU, CARD8 / Fold change vs veh, CARD8 / RFU, STRN3 / Fold change vs veh, STRN3 / RFU, ADK / Fold change vs veh, ADK / RFU, RASSF2 / Fold change vs veh, RASSF2 / RFU, WIPF1 / Fold change vs veh, WIPF1 / RFU, LARP1B / Fold change vs veh, LARP1B / RFU, RASA1 / Fold change vs veh, RASA1 / RFU, RB1 / Fold change vs veh, RB1 / RFU, PPFIA1 / Fold change vs veh, PPFIA1 / RFU, MAT2A / Fold change vs veh, MAT2A / RFU, CCT5 / Fold change vs veh, CCT5 / RFU, WDR92 / Fold change vs veh, WDR92 / RFU, CUX1 / Fold change vs veh, CUX1 / RFU, TTC7A / Fold change vs veh, TTC7A / RFU, TMEM135 / Fold change vs veh, TMEM135 / RFU, DEPTOR / Fold change vs veh, DEPTOR / RFU, CPM / Fold change vs veh, CPM / RFU, DNAJB6 / Fold change vs veh, DNAJB6 / RFU, CACNA2D3 / Fold change vs veh, CACNA2D3 / RFU, DTX4 / Fold change vs veh, DTX4 / RFU, TFCP2 / Fold change vs veh, TFCP2 / RFU, GMCL1 /// GMCL1P1 / Fold change vs veh, GMCL1 /// GMCL1P1 / RFU, AEBP2 / Fold change vs veh, AEBP2 / RFU, SNHG1 /// SNORD22 /// SNORD25 /// SNORD26 /// SNORD27 /// SNORD28 /// SNORD29 /// SNORD31 / Fold change vs veh, SNHG1 /// SNORD22 /// SNORD25 /// SNORD26 /// SNORD27 /// SNORD28 /// SNORD29 /// SNORD31 / Fold change (Aza/veh), C12orf56 (ProbeSet 11735607_a_at) / Fold change (ACY-1035/veh), C12orf56 (ProbeSet 11735607_a_at) / Fold change (Aza/veh), FGFR1OP (ProbeSet 11751329_s_at) / Fold change (ACY-1035/veh), FGFR1OP (ProbeSet 11751329_s_at) / Fold change (Aza/veh), VPS36 (ProbeSet 11739960_a_at) / Fold change (ACY-1035/veh), VPS36 (ProbeSet 11739960_a_at) / RFU SYPL1 (11715823_x_at) / Fold change /veh SYPL1 (11715823_x_at) / RFU IGFBP7 (11715501_s_at) / Fold change /veh IGFBP7 (11715501_s_at) / RFU REEP3 (11722064_at) / Fold change /veh REEP3 (11722064_at) / RFU IGLL1 (11728026_x_at) / Fold change /veh IGLL1 (11728026_x_at): dose or concentration left out as unconfirmed
Details: ProbeSet 11728314_at; LIST B

**Q.** Which “Fold change vs veh, ZNF148” value does the source give for `Nc1ncn([C@@H]2O[C@H](CO)[C@@H](O)[C@H]2O)c(=O)n1` [azacitidine] here?
**A.** 0.99
